Reference: patent US10709678B2, “Methods of reducing risk of cardiovascular disease” (NEUROBO PHARMACEUTICALS, INC., priority 2012, dated 2020)
Read-outs that look alike come from different tables or passages of the source.

Tests used:
[1] = test system: obese female Zucker rats; details: cited from earlier work
[2] = test system: LDL-C; details: monotherapy, ezetimibe 10 mg; cited from earlier work
[3] = test system: hypercholesterolemic patients; test: 8-week double-blind placebo-controlled phase 2 study of gemcabene added to a stable statin dose: LDL-C; type: in vivo, human; details: on stable statin, placebo reduction 7.9%, p<0.01
Experimental: An 8-week, double-blind, placebo-controlled, randomized, multicenter, phase 2 study in hypercholesterolemic patients on a stable dose of statin (on statin therapy for at least the previous 3 months) was conducted to evaluate the efficacy of gemcabene in the further reduction of LDL-C in these patients.
A total of 66 hypercholesterolemic patients were treated in this study: 22 randomized to gemcabene 900 mg, 20 randomized to gemcabene 300 mg, and 24 randomized to placebo.
Patients included in the study were men and women ≥18 and ≤65 years of age with hypercholesterolemia and an LDL-C level at screening of ≥130 mg/dL while on a stable (3-months) dose of a statin. Patients were required to maintain their current dose of statin throughout the course of the study. […]
Percent change from base line was calculated as follows: Percent Change From Baseline=[(final value−baseline value)/baseline value]×100%. […]

[4] = test system: hypercholesterolemic patients; test: Framingham Risk Score, baseline vs week 8, in the same phase 2 study; type: in vivo, human; details: 300 mg and 900 mg QD
Experimental: As used herein, references to 10-year risk are calculated using the Framingham point scores as provided in Tables 1 and 2, for men and women respectively. The patients' Framingham Risk Score was calculated at baseline. The Framingham risk score calculation takes into account: age, gender, systolic blood pressure level (+/−treatment), HDL cholesterol level, and smoker status. […] Significance was determined using the SAS Proc Univariate which provides p values from the student's paired t-test and the Wilcoxon Signed Rank test.

[5] = test system: LDL-C; details: cited from earlier work
[6] = test system: LDL-C; details: lovastatin 40 mg twice daily; cited from earlier work

CC(C)(CCCCCC(O)CCCCCC(C)(C)C(=O)O)C(=O)O [ESP 55016]
HDL-C [1]: raising
non-HDL-C [1]: effective in lowering
triglyceride levels [1]: decreasing

O=C1[C@H](CC[C@H](O)c2ccc(F)cc2)[C@@H](c2ccc(O)cc2)N1c1ccc(F)cc1 [ezetimibe]
LDL-C lowered [2]: 16%

CC(C)(CCCCOCCCCC(C)(C)C(=O)O)C(=O)O [gemcabene, 6,6′-oxybis-(2,2′-dimethylhexanoic acid)]
LDL-C lowered from baseline at Week 8, median ([3]; 300 mg per day): 24.8%
LDL-C lowered from baseline at Week 8, median ([3]; 900 mg per day): 31.0%
Framingham Risk Score compared with statin treatment alone [4]: significantly reduced
decrease in LDL-C beyond atorvastatin monotherapy ([5]; 300 mg gemcabene with atorvastatin (aggregated over 10, 40 and 80 mg)): 3.8%
decrease in LDL-C beyond atorvastatin monotherapy ([5]; 600 mg gemcabene with atorvastatin (aggregated over 10, 40 and 80 mg)): 6.1%
decrease in LDL-C beyond atorvastatin monotherapy ([5]; 900 mg gemcabene with atorvastatin (aggregated over 10, 40 and 80 mg)): 7.4%

CC[C@H](C)C(=O)O[C@H]1C[C@@H](C)C=C2C=C[C@H](C)[C@H](CC[C@@H]3C[C@@H](O)CC(=O)O3)[C@H]21 [lovastatin]
LDL-C lowered [6]: 35.5%
